Converted amounts (≈) assume the structure as drawn. Read-outs that look alike come from different tables or passages of the source. Values belong to the compound of their own block, whether it stands above or below them.
Tests used:
[1] = system: Pseudomonas aeruginosa; assay: MIC, CLSI broth microdilution, Pseudomonas aeruginosa panel; type: cell-based
Procedure: (§1) Minimum inhibitory concentrations (MIC) were determined by reference Clinical and Laboratory Standards Institute (CLSI) broth microdilution methods per M7-A7 [2006]. Quality control ranges utilizing E. coli ATCC 25922, P. aeruginosa ATCC 27853 and S. aureus ATCC 29213, and interpretive criteria for comparator agents were as published in CLSI M100-S17 [2007]. Briefly, serial two-fold dilutions of the test compounds were prepared at 2× concentration in Mueller Hinton Broth. The compound dilutions were mixed in 96-well assay plates in a 1:1 ratio with bacterial inoculum. The inoculum was prepared by suspension of a colony from an agar plate that was prepared the previous day. Bacteria were suspended in sterile saline and added to each assay plate to obtain a final concentration of 5×10^5 CFU/mL. The plates were incubated at 35 C for 20 hours in ambient air.
The MIC panel presented in Table 1 contains 27 isolates of Pseudomonas aeruginosa: strains 1-22 are clinical isolates from around the world collected between 2004-2007 which contain representative resistance mechanisms commonly found in Pseudomonas, such as the AAC(6′)-I, AAC(6′)-II, APH(3′)-IIb, ANT(2″)-I, and perm/efflux; strains 23-27 are susceptible.

[2] = system: Acinetobacter baumannii; assay: MIC, CLSI broth microdilution, Acinetobacter baumannii panel; type: cell-based; details: Acinetobacter baumannii, read-out: MIC
Procedure: as §1
The MIC panel presented in Table 2 contains 29 isolates of Acinetobacter baumannii: strains 1-24 are clinical isolates from around the world collected between 2004-2007 which contain representative resistance mechanisms commonly found in Acinetobacter baumannii, such as AAC(3)-I and II, AAC(6′)-I, ANT(2″)-I, APH(3′)-VI, and perm/efflux; strains 25-29 are susceptible.

MIC ([1]; Pseudomonas aeruginosa, P. aeruginosa clinical strain 1 (resistant clinical isolate), read-out: MIC): ≤ 1 µg/mL
MIC ([1]; Pseudomonas aeruginosa, P. aeruginosa clinical strain 2 (resistant clinical isolate), read-out: MIC): ≤ 1 µg/mL
MIC ([1]; Pseudomonas aeruginosa, P. aeruginosa clinical strain 3 (resistant clinical isolate), read-out: MIC): 1 to 8 µg/mL (≈ 1.34 to 10.8 µM)
MIC ([1]; Pseudomonas aeruginosa, P. aeruginosa clinical strain 4 (resistant clinical isolate), read-out: MIC): 1 to 8 µg/mL (≈ 1.34 to 10.8 µM)
MIC ([1]; Pseudomonas aeruginosa, P. aeruginosa clinical strain 5 (resistant clinical isolate), read-out: MIC): 1 to 8 µg/mL (≈ 1.34 to 10.8 µM)
MIC ([1]; Pseudomonas aeruginosa, P. aeruginosa clinical strain 6 (resistant clinical isolate), read-out: MIC): 1 to 8 µg/mL (≈ 1.34 to 10.8 µM)
MIC ([1]; Pseudomonas aeruginosa, P. aeruginosa clinical strain 7 (resistant clinical isolate), read-out: MIC): ≤ 1 µg/mL
MIC ([1]; Pseudomonas aeruginosa, P. aeruginosa clinical strain 8 (resistant clinical isolate), read-out: MIC): 8 to 16 µg/mL (≈ 10.8 to 21.5 µM)
MIC ([1]; Pseudomonas aeruginosa, P. aeruginosa clinical strain 9 (resistant clinical isolate), read-out: MIC): 1 to 8 µg/mL (≈ 1.34 to 10.8 µM)
MIC ([1]; Pseudomonas aeruginosa, P. aeruginosa clinical strain 10 (resistant clinical isolate), read-out: MIC): 8 to 16 µg/mL (≈ 10.8 to 21.5 µM)
MIC ([1]; Pseudomonas aeruginosa, P. aeruginosa clinical strain 11 (resistant clinical isolate), read-out: MIC): ≤ 1 µg/mL
MIC ([1]; Pseudomonas aeruginosa, P. aeruginosa clinical strain 12 (resistant clinical isolate), read-out: MIC): 1 to 8 µg/mL (≈ 1.34 to 10.8 µM)
MIC ([1]; Pseudomonas aeruginosa, P. aeruginosa clinical strain 13 (resistant clinical isolate), read-out: MIC): 16 to 32 µg/mL (≈ 21.5 to 43 µM)
MIC ([1]; Pseudomonas aeruginosa, P. aeruginosa clinical strain 14 (resistant clinical isolate), read-out: MIC): 1 to 8 µg/mL (≈ 1.34 to 10.8 µM)
MIC ([1]; Pseudomonas aeruginosa, P. aeruginosa clinical strain 15 (resistant clinical isolate), read-out: MIC): 1 to 8 µg/mL (≈ 1.34 to 10.8 µM)
MIC ([1]; Pseudomonas aeruginosa, P. aeruginosa clinical strain 16 (resistant clinical isolate), read-out: MIC): 1 to 8 µg/mL (≈ 1.34 to 10.8 µM)
MIC ([1]; Pseudomonas aeruginosa, P. aeruginosa clinical strain 17 (resistant clinical isolate), read-out: MIC): 1 to 8 µg/mL (≈ 1.34 to 10.8 µM)
MIC ([1]; Pseudomonas aeruginosa, P. aeruginosa clinical strain 18 (resistant clinical isolate), read-out: MIC): 1 to 8 µg/mL (≈ 1.34 to 10.8 µM)
MIC ([1]; Pseudomonas aeruginosa, P. aeruginosa clinical strain 19 (resistant clinical isolate), read-out: MIC): 16 to 32 µg/mL (≈ 21.5 to 43 µM)
MIC ([1]; Pseudomonas aeruginosa, P. aeruginosa clinical strain 20 (resistant clinical isolate), read-out: MIC): 16 to 32 µg/mL (≈ 21.5 to 43 µM)
MIC ([1]; Pseudomonas aeruginosa, P. aeruginosa clinical strain 21 (resistant clinical isolate), read-out: MIC): 8 to 16 µg/mL (≈ 10.8 to 21.5 µM)
MIC ([1]; Pseudomonas aeruginosa, P. aeruginosa clinical strain 22 (resistant clinical isolate), read-out: MIC): 1 to 8 µg/mL (≈ 1.34 to 10.8 µM)
MIC ([1]; Pseudomonas aeruginosa, P. aeruginosa strain 23 (susceptible), read-out: MIC): ≤ 1 µg/mL
MIC ([1]; Pseudomonas aeruginosa, P. aeruginosa strain 24 (susceptible), read-out: MIC): ≤ 1 µg/mL
MIC ([1]; Pseudomonas aeruginosa, P. aeruginosa strain 25 (susceptible), read-out: MIC): ≤ 1 µg/mL
MIC ([1]; Pseudomonas aeruginosa, P. aeruginosa strain 26 (susceptible), read-out: MIC): ≤ 1 µg/mL
MIC ([1]; Pseudomonas aeruginosa, P. aeruginosa strain 27 (susceptible), read-out: MIC): ≤ 1 µg/mL
MIC ([2]; A. baumannii clinical strain 1 (resistant clinical isolate)): 1 to 8 µg/mL (≈ 1.34 to 10.8 µM)
MIC ([2]; A. baumannii clinical strain 2 (resistant clinical isolate)): 8 to 16 µg/mL (≈ 10.8 to 21.5 µM)
MIC ([2]; A. baumannii clinical strain 3 (resistant clinical isolate)): 1 to 8 µg/mL (≈ 1.34 to 10.8 µM)
MIC ([2]; A. baumannii clinical strain 4 (resistant clinical isolate)): 16 to 32 µg/mL (≈ 21.5 to 43 µM)
MIC ([2]; A. baumannii clinical strain 5 (resistant clinical isolate)): 1 to 8 µg/mL (≈ 1.34 to 10.8 µM)
MIC ([2]; A. baumannii clinical strain 6 (resistant clinical isolate)): 1 to 8 µg/mL (≈ 1.34 to 10.8 µM)
MIC ([2]; A. baumannii clinical strain 7 (resistant clinical isolate)): ≤ 1 µg/mL
MIC ([2]; A. baumannii clinical strain 8 (resistant clinical isolate)): 1 to 8 µg/mL (≈ 1.34 to 10.8 µM)
MIC ([2]; A. baumannii clinical strain 9 (resistant clinical isolate)): ≤ 1 µg/mL
MIC ([2]; A. baumannii clinical strain 10 (resistant clinical isolate)): 1 to 8 µg/mL (≈ 1.34 to 10.8 µM)
MIC ([2]; A. baumannii clinical strain 11 (resistant clinical isolate)): ≤ 1 µg/mL
MIC ([2]; A. baumannii clinical strain 12 (resistant clinical isolate)): ≤ 1 µg/mL
MIC ([2]; A. baumannii clinical strain 13 (resistant clinical isolate)): ≤ 1 µg/mL
MIC ([2]; A. baumannii clinical strain 14 (resistant clinical isolate)): 1 to 8 µg/mL (≈ 1.34 to 10.8 µM)
MIC ([2]; A. baumannii clinical strain 15 (resistant clinical isolate)): ≤ 1 µg/mL
MIC ([2]; A. baumannii clinical strain 16 (resistant clinical isolate)): 1 to 8 µg/mL (≈ 1.34 to 10.8 µM)
MIC ([2]; A. baumannii clinical strain 17 (resistant clinical isolate)): 1 to 8 µg/mL (≈ 1.34 to 10.8 µM)
MIC ([2]; A. baumannii clinical strain 18 (resistant clinical isolate)): 8 to 16 µg/mL (≈ 10.8 to 21.5 µM)
MIC ([2]; A. baumannii clinical strain 19 (resistant clinical isolate)): 1 to 8 µg/mL (≈ 1.34 to 10.8 µM)
MIC ([2]; A. baumannii clinical strain 20 (resistant clinical isolate)): 8 to 16 µg/mL (≈ 10.8 to 21.5 µM)
MIC ([2]; A. baumannii clinical strain 21 (resistant clinical isolate)): ≤ 1 µg/mL
MIC ([2]; A. baumannii clinical strain 22 (resistant clinical isolate)): 16 to 32 µg/mL (≈ 21.5 to 43 µM)
MIC ([2]; A. baumannii clinical strain 23 (resistant clinical isolate)): ≤ 1 µg/mL
MIC ([2]; A. baumannii clinical strain 24 (resistant clinical isolate)): 16 to 32 µg/mL (≈ 21.5 to 43 µM)
MIC ([2]; A. baumannii strain 25 (susceptible)): ≤ 1 µg/mL
MIC ([2]; A. baumannii strain 26 (susceptible)): 1 to 8 µg/mL (≈ 1.34 to 10.8 µM)
MIC ([2]; A. baumannii strain 27 (susceptible)): ≤ 1 µg/mL
MIC ([2]; A. baumannii strain 28 (susceptible)): ≤ 1 µg/mL
MIC ([2]; A. baumannii strain 29 (susceptible)): ≤ 1 µg/mL
SMILES: NCC[C@H](O)C(=O)N[C@@H]1C[C@H](N)[C@@H](O[C@H]2O[C@H](CNCCO)[C@@H](O)C[C@H]2N)[C@H](O[C@@H]2O[C@H](CO)[C@@H](O[C@H]3O[C@@H](CN)[C@@H](O)[C@H](O)[C@H]3N)[C@H]2O)[C@H]1O [Compound 18]

SMILES: NC[C@@H]1O[C@H](O[C@H]2[C@@H](O)[C@H](O[C@@H]3[C@@H](O)[C@H](N)C[C@H](N)[C@H]3O[C@H]3O[C@H](CN)[C@@H](O)[C@H](O)[C@H]3N)O[C@@H]2CO)[C@H](N)[C@@H](O)[C@@H]1O [Neo B, neomycin B]
MIC ([1]; P. aeruginosa clinical strain 1 (resistant clinical isolate)): E (MIC's greater than or equal to 32.0 μg/mL = E)
MIC ([1]; P. aeruginosa clinical strain 2 (resistant clinical isolate)): D (MIC's greater than or equal to 16.0 μg/mL and lower than 32 μg/mL = D)
MIC ([1]; P. aeruginosa clinical strain 3 (resistant clinical isolate)): E (MIC's greater than or equal to 32.0 μg/mL = E)
MIC ([1]; P. aeruginosa clinical strain 4 (resistant clinical isolate)): E (MIC's greater than or equal to 32.0 μg/mL = E)
MIC ([1]; P. aeruginosa clinical strain 5 (resistant clinical isolate)): E (MIC's greater than or equal to 32.0 μg/mL = E)
MIC ([1]; P. aeruginosa clinical strain 6 (resistant clinical isolate)): D (MIC's greater than or equal to 16.0 μg/mL and lower than 32 μg/mL = D)
MIC ([1]; P. aeruginosa clinical strain 7 (resistant clinical isolate)): C (MIC's greater than or equal to 8 μg/mL and lower than 16.0 μg/mL = C)
MIC ([1]; P. aeruginosa clinical strain 8 (resistant clinical isolate)): E (MIC's greater than or equal to 32.0 μg/mL = E)
MIC ([1]; P. aeruginosa clinical strain 9 (resistant clinical isolate)): D (MIC's greater than or equal to 16.0 μg/mL and lower than 32 μg/mL = D)
MIC ([1]; P. aeruginosa clinical strain 10 (resistant clinical isolate)): E (MIC's greater than or equal to 32.0 μg/mL = E)
MIC ([1]; P. aeruginosa clinical strain 11 (resistant clinical isolate)): B (MIC's of greater than 1.0 μg/mL and lower than 8 μg/mL = B)
MIC ([1]; P. aeruginosa clinical strain 12 (resistant clinical isolate)): E (MIC's greater than or equal to 32.0 μg/mL = E)
MIC ([1]; P. aeruginosa clinical strain 13 (resistant clinical isolate)): E (MIC's greater than or equal to 32.0 μg/mL = E)
MIC ([1]; P. aeruginosa clinical strain 14 (resistant clinical isolate)): E (MIC's greater than or equal to 32.0 μg/mL = E)
MIC ([1]; P. aeruginosa clinical strain 15 (resistant clinical isolate)): E (MIC's greater than or equal to 32.0 μg/mL = E)
MIC ([1]; P. aeruginosa clinical strain 16 (resistant clinical isolate)): E (MIC's greater than or equal to 32.0 μg/mL = E)
MIC ([1]; P. aeruginosa clinical strain 17 (resistant clinical isolate)): C (MIC's greater than or equal to 8 μg/mL and lower than 16.0 μg/mL = C)
MIC ([1]; P. aeruginosa clinical strain 18 (resistant clinical isolate)): E (MIC's greater than or equal to 32.0 μg/mL = E)
MIC ([1]; P. aeruginosa clinical strain 19 (resistant clinical isolate)): E (MIC's greater than or equal to 32.0 μg/mL = E)
MIC ([1]; P. aeruginosa clinical strain 20 (resistant clinical isolate)): E (MIC's greater than or equal to 32.0 μg/mL = E)
MIC ([1]; P. aeruginosa clinical strain 21 (resistant clinical isolate)): E (MIC's greater than or equal to 32.0 μg/mL = E)
MIC ([1]; P. aeruginosa clinical strain 22 (resistant clinical isolate)): E (MIC's greater than or equal to 32.0 μg/mL = E)
MIC ([1]; P. aeruginosa strain 23 (susceptible)): B (MIC's of greater than 1.0 μg/mL and lower than 8 μg/mL = B)
MIC ([1]; P. aeruginosa strain 24 (susceptible)): B (MIC's of greater than 1.0 μg/mL and lower than 8 μg/mL = B)
MIC ([1]; P. aeruginosa strain 25 (susceptible)): B (MIC's of greater than 1.0 μg/mL and lower than 8 μg/mL = B)
MIC ([1]; P. aeruginosa strain 26 (susceptible)): C (MIC's greater than or equal to 8 μg/mL and lower than 16.0 μg/mL = C)
MIC ([1]; P. aeruginosa strain 27 (susceptible)): B (MIC's of greater than 1.0 μg/mL and lower than 8 μg/mL = B)

— patent US8653041B2, “Antibacterial aminoglycoside analogs” (Achaogen, Inc., priority 2010, dated 2014)
